In patent publication US8933089B2, “HIV inhibiting 5-amido substituted pyrimidines” (Janssen R & D Ireland, priority 2006, dated 2015):

How the values were obtained:
Format in all cases: cell-based, HIV-1
[1] = system: HIV strain IIIB (wild type); experiment: Cellular anti-HIV assay in MT4 LTR-EGFP cells, strain IIIB (wild type); selectivity index versus cytotoxicity in mock-infected MT4 CMV-EGFP cells; conditions: for EC50: Human immunodeficiency virus 1, 72 h, wild type HIV strain IIIB, MT4 LTR-EGFP cells, fluorescence, three days after infection, read-out: IIIB pEC50 (converted); for IIIB pSi: selectivity index = ratio of CC50 (mock-infected MT4 CMV-EGFP cells) to EC50 (IIIB), given as p value
Protocol: (§1) The antiviral activity of the compound of the present invention has been evaluated in the presence of wild type HIV and HIV mutants bearing mutations at the reverse transcriptase gene. The activity of the compounds is evaluated using a cellular assay which was performed according to the following procedure.
(§2) The human T-cell line MT4 is engineered with Green Fluorescent Protein (GFP) and an HIV-specific promoter, HIV-1 long terminal repeat (LTR). This cell line is designated MT4 LTR-EGFP, and can be used for the in vitro evaluation of anti-HIV activity of investigational compounds. In HIV-1 infected cells, the Tat protein is produced which upregulates the LTR promotor and finally leads to stimulation of the GFP reporter production, allowing to measure ongoing HIV-infection fluorometrically. Analogously, MT4 cells are engineered with GFP and the constitutional cytomegalovirus (CMV) promotor. This cell line is designated MT4 CMV-EGFP, and can be used for the in vitro evaluation of cytotoxicity of investigational compounds. In this cell line, GFP levels are comparably to those of infected MT4 LTR-EGFP cells. Cytotoxic investigational compounds reduce GFP levels of mock-infected MT4 CMV-EGFP cells.
(§3) Effective concentration values such as 50% effective concentration (EC50) can be determined and are usually expressed in μM. An EC50 value is defined as the concentration of test compound that reduces the fluorescence of HIV-infected cells by 50%. The 50% cytotoxic concentration (CC50 in μM) is defined as the concentration of test compound that reduces fluorescence of the mock-infected cells by 50%. The ratio of CC50 to EC50 is defined as the selectivity index (SI) and is an indication of the selectivity of the anti-HIV activity of the inhibitor. The ultimate monitoring of HIV-1 infection and cytotoxicity is done using a scanning microscope. Image analysis allows very sensitive detection of viral infection. Measurements are done before cell necrosis, which usually takes place about five days after infection, in particular measurements are performed three days after infection.
(§4) The columns IIIB, L100I, etc. in the table list the pEC50 values against various strains IIIB, L100I, etc.
Strain IIIB is wild type HIV strain

HIV strain K103N + Y181C = experiment: Cellular anti-HIV assay in MT4 LTR-EGFP cells, mutant K103N + Y181C; conditions: Human immunodeficiency virus 1, 72 h, read-out: K103N + Y181C pEC50 (converted)
Protocol: (§5) Because of the increasing emergence of drug resistant HIV strains, the present compounds were tested for their potency against clinically isolated HIV strains harbouring several mutations. These mutations are associated with resistance to reverse transcriptase inhibitors and result in viruses that show various degrees of phenotypic cross-resistance to the currently commercially available drugs such as for instance AZT and delavirdine.
as §1, §2, §3, §4

HIV strain Y188L = experiment: Cellular anti-HIV assay in MT4 LTR-EGFP cells, mutant Y188L; conditions: Human immunodeficiency virus 1, read-out: Y188L pEC50 (converted)
Protocol: as §5, §1, §2, §3, §4

HIV strain MDR = experiment: Cellular anti-HIV assay in MT4 LTR-EGFP cells, MDR strain; conditions: Human immunodeficiency virus 1, read-out: MDR pEC50 (converted)
Protocol: as §5, §1, §2, §3, §4
MDR refers to a strain that contains mutations L100I, K103N, Y181C, E138G, V1791, L2214F, V278V/I and A327A/V in HIV reverse transcriptase.

HIV strain L100I = experiment: Cellular anti-HIV assay in MT4 LTR-EGFP cells, mutant L100I; conditions: Human immunodeficiency virus 1, read-out: L100I pEC50 (converted)
Protocol: as §5, §1, §2, §3, §4

HIV strain K103N = experiment: Cellular anti-HIV assay in MT4 LTR-EGFP cells, mutant K103N; conditions: Human immunodeficiency virus 1, read-out: K103N pEC50 (converted)
Protocol: as §5, §1, §2, §3, §4

HIV strain L100I + K103N = experiment: Cellular anti-HIV assay in MT4 LTR-EGFP cells, mutant L100I + K103N; conditions: Human immunodeficiency virus 1, 72 h, read-out: L100I + K103N pEC50 (converted)
Protocol: as §5, §1, §2, §3, §4

HIV strain Y181C = experiment: Cellular anti-HIV assay in MT4 LTR-EGFP cells, mutant Y181C; conditions: Human immunodeficiency virus 1, read-out: Y181C pEC50 (converted)
Protocol: as §5, §1, §2, §3, §4

| SMILES | EC50 [1] [nM] | IIIB pSi [1] | EC50 (HIV strain K103N + Y181C) [nM] | EC50 (HIV strain Y188L) [nM] | EC50 (HIV strain MDR) [nM] | EC50 (HIV strain L100I) [nM] | EC50 (HIV strain K103N) [nM] | EC50 (HIV strain L100I + K103N) [nM] | EC50 (HIV strain Y181C) [nM] |
| --- | --- | --- | --- | --- | --- | --- | --- | --- | --- |
| Cc1cc(/C=C/C#N)cc(C)c1Nc1nc(Nc2ccc(C#N)cc2)ncc1C(=O)NCc1cccs1 [Compound 20] | 5.01 | 3.60 | 31.6 | 50.1 | 2510 | 15.8 | 5.01 | 100 | 39.8 |
| Cc1cccc(CNC(=O)c2cnc(Nc3ccc(C#N)cc3)nc2Nc2c(C)cc(/C=C/C#N)cc2C)c1 [Compound 28] | 15.8 | 3.10 | 50.1 | 126 | 7940 | 50.1 | 15.8 |  | 79.4 |
| Cc1cc(/C=C/C#N)cc(C)c1Nc1nc(Nc2ccc(C#N)cc2)ncc1C(=O)N(C)c1ccccc1 [Compound 5] | 5.01 | >3.70 | 158 | 100 | 3980 | 25.1 | 10 | 50.1 | 100 |
| CCOC(=O)CCCNC(=O)c1cnc(Nc2ccc(C#N)cc2)nc1Nc1c(C)cc(/C=C/C#N)cc1C [Compound 45] | 2.51 | >4.00 | 15.8 | 20 | 1000 | 6.31 | 2 |  |  |
| Cc1cc(/C=C/C#N)cc(C)c1Nc1nc(Nc2ccc(C#N)cc2)ncc1C(=O)NCc1ccc(N(C)C)cc1 [Compound 30] | 12.6 | >3.30 | 100 | 316 | 5010 | 100 | 15.8 | 251 | 100 |
| Cc1cc(/C=C/C#N)cc(C)c1Nc1nc(Nc2ccc(C#N)cc2)ncc1C(=O)NCC1CC1 [Compound 41] | 5.01 | >3.70 | 20 | 79.4 | 1580 | 7.94 | 3.98 | 50.1 | 15.8 |
| Cc1cc(/C=C/C#N)cc(C)c1Oc1nc(Nc2ccc(C#N)cc2)ncc1C(=O)NCc1ccncc1 [Compound 58] | 2 | >4.10 | 100 | 158 | 3160 |  | 6.31 | 316 |  |
| Cc1cc(/C=C/C#N)cc(C)c1Nc1nc(Nc2ccc(C#N)cc2)ncc1C(=O)N1CCN(C)CC1 [Compound 6] | 1.58 | >4.20 | 398 | 316 | 10000 | 158 | 5.01 | 1260 | 100 |
| Cc1cc(/C=C/C#N)cc(C)c1Nc1nc(Nc2ccc(C#N)cc2)ncc1C(=O)N1CCCCC1 [Compound 2] | 3.16 | >3.90 | 501 | 398 | 10000 | 63.1 | 12.6 | 200 | 126 |
| CONC(=O)c1cnc(Nc2ccc(C#N)cc2)nc1Nc1c(C)cc(/C=C/C#N)cc1C [Compound 23] | 3.98 | >3.80 | 7.94 | 15.8 | 794 | 5.01 |  | 12.6 | 15.8 |
| Cc1cc(/C=C/C#N)cc(C)c1Nc1nc(Nc2ccc(C#N)cc2)ncc1C(=O)NCCCN(C)C [Compound 43] | 12.6 | >3.30 | 79.4 | 79.4 | 3160 | 50.1 | 10 | 126 | 25.1 |
| Cc1cc(/C=C/C#N)cc(C)c1Nc1nc(Nc2ccc(C#N)cc2)ncc1C(=O)NCCC#N [Compound 46] | 7.94 | >3.50 | 39.8 | 31.6 | 158 | 7.94 | 3.98 | 15.8 |  |
| Cc1cc(/C=C/C#N)cc(C)c1Nc1nc(Nc2ccc(C#N)cc2)ncc1C(=O)NCCCO [Compound 49] | 15.8 | 3.00 | 50.1 | 79.4 | 501 | 20 | 15.8 | 63.1 | 79.4 |
| Cc1cc(/C=C/C#N)cc(C)c1Nc1nc(Nc2ccc(C#N)cc2)ncc1C(=O)NCc1cccc(Br)c1 [Compound 29] | 15.8 | 3.00 | 100 | 158 | 10000 | 79.4 | 20 | 126 | 79.4 |
| Cc1cc(/C=C/C#N)cc(C)c1Nc1nc(Nc2ccc(C#N)cc2)ncc1C(=O)NCc1ccco1 [Compound 19] | 3.98 | 3.60 | 20 | 20 | 1000 | 3.98 | 3.98 | 50.1 | 20 |
| Cc1cc(/C=C/C#N)cc(C)c1Nc1nc(Nc2ccc(C#N)cc2)ncc1C(=O)Nc1ccccn1 [Compound 3] | 2 | 4.00 | 63.1 | 25.1 | 2510 | 5.01 | 3.16 | 12.6 | 15.8 |
| Cc1cc(/C=C/C#N)cc(C)c1Nc1nc(Nc2ccc(C#N)cc2)ncc1C(=O)NCCc1ccccc1 [Compound 31] | 15.8 | 3.10 | 50.1 | 79.4 | 10000 | 31.6 | 15.8 |  | 63.1 |
| Cc1cc(/C=C/C#N)cc(C)c1Oc1nc(Nc2ccc(C#N)cc2)ncc1C(=O)NCC1CCCO1 (stereo not shown) [Compound 59] | 2.51 | 3.80 | 79.4 | 251 | 3980 | 63.1 | 6.31 | 251 | 31.6 |
| Cc1ccc(CNC(=O)c2cnc(Nc3ccc(C#N)cc3)nc2Nc2c(C)cc(/C=C/C#N)cc2C)o1 [Compound 24] | 15.8 | 3.00 | 50.1 | 79.4 | 5010 | 25.1 |  | 79.4 | 25.1 |
| Cc1cc(/C=C/C#N)cc(C)c1Nc1nc(Nc2ccc(C#N)cc2)ncc1C(=O)NCC1CCCO1 (stereo not shown) [Compound 12] | 1.26 | 4.10 | 12.6 | 10 | 1000 | 2.51 | 2.51 | 20 | 15.8 |
| Cc1cc(/C=C/C#N)cc(C)c1Nc1nc(Nc2ccc(C#N)cc2)ncc1C(=O)NCCc1cccc(F)c1 [Compound 32] | 12.6 | 3.10 | 79.4 | 100 | 10000 | 39.8 | 15.8 |  | 79.4 |
| COc1ccccc1CNC(=O)c1cnc(Nc2ccc(C#N)cc2)nc1Nc1c(C)cc(/C=C/C#N)cc1C [Compound 27] | 6.31 | >3.60 | 39.8 | 79.4 | 3160 | 50.1 | 7.94 |  | 39.8 |
